This passage reports Ki and solubility results from patent US20160039880A1 (priority 2012, published 2016).

Series [1] has as its target Human recombinant cyclophilin A (Cyp A) (Homo sapiens, UniProt P62937). Kind of series: Protease-free PPIase assay.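 Further: cis to trans isomerization of SUC-AAPF-pNA by 2 nM enzyme, read as absorbance at 330 nm over 300 s at 10 °C, catalytic rate corrected for uncatalyzed background.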
A short description of series [2]: Water Solubility Assay (measured in pH 7.8 buffer).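 Further: precipitation onset detected as rise in absorbance at 650 nm across increasing concentrations, after shaking for 18 h, blank wells receiving DMSO only.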 Type of series: physicochemical. The note with it: kinetic from dmso stock.
Protocol: The aqueous solubility of a compound of Formula I in buffer (pH 7.8) was measured by recording the onset of precipitation of the compound as a function of increasing concentration. The onset of precipitation, if it occurred, was detected by an increase in absorbance at 650 nm.
Assay Buffer: 35 mM HEPES pH 7.8
Stock solutions of Control and Test Compounds: 10 mM in 100% DMSO
10 mM stock solutions of control and test compounds were prepared in 100% DMSO.
Assay buffer (247.5 μl) was placed into flat bottomed transparent 96-well plate. For blank samples DMSO (2.5 μl) was added. For test and control samples 2.5 μl of the appropriate DMSO dilution stocks were added to the appropriate well. All test and control compounds were performed in triplicate.
The plates were sealed with adhesive plate seal and shaken at 250 rpm at 25° C. for 18 h on a plate shaker.
After incubation the plate seals were taken off and any bubbles observed in wells removed. The plates were read on a SpectraMaxM5 with a 5 s pre-shake at 650 nm.
Data files were transferred to the appropriate worksheet and the solubility range of the compounds was calculated from the data.
The mark [3] stands for this setting: 35 mM HEPES buffer pH 7.8, 25 °C, aqueous buffer, pH 7.8 buffer, read-out: Water Solubility Assay.

Structures are written as SMILES. In brackets after ≈: the same amount, converted by molar mass. Read-outs that look alike come from different tables or passages of the source.

Chain of Human recombinant cyclophilin A (Cyp A) (P62937 whole entry): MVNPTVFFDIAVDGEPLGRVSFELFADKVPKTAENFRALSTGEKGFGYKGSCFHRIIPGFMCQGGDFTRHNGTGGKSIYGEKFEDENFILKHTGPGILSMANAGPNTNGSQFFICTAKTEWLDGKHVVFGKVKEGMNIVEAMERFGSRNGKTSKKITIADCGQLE

Regarding `CC[C@H]1NC(=O)[C@@H]([C@H](O)[C@H](C)CCN2CCCCC2)N(C)C(=O)[C@@H](C(C)C)N(C)C(=O)[C@@H](CC(C)C)N(C)C(=O)[C@@H](CC(C)C)N(C)C(=O)[C@H](C)NC(=O)[C@@H](C)NC(=O)C(CC(C)C)N(C)C(=O)[C@@H](C(C)C)NC(=O)[C@H](CC(C)C)N(C)C(=O)[C@@H](C)N(C)C1=O` (stereo partly drawn) [Compound EA, [(3R,4R,5S)-4-Hydroxy-3-methyl-5-(methylamino)-1-(piperidin-1-yl)-hexanoic acid]^1[(R)-methyl-Sar]^3 cyclosporin A], the Ki (usually a measure of affinity in units of concentration, obtained from inhibition or displacement) in series [1] stood at 22 nM. In the case of `CC[C@H]1NC(=O)[C@@H]([C@H](O)[C@H](C)CCN2CCOCC2)N(C)C(=O)[C@@H](C(C)C)N(C)C(=O)[C@@H](CC(C)C)N(C)C(=O)[C@@H](CC(C)C)N(C)C(=O)[C@H](C)NC(=O)[C@@H](C)NC(=O)[C@@H](CC(C)C)N(C)C(=O)[C@@H](C(C)C)NC(=O)[C@H](CC(C)C)N(C)C(=O)[C@@H](COC)N(C)C1=O` [Compound D, [(3R,4R,5S)-4-Hydroxy-3-methyl-5-(methylamino)-1-N-morpholino-hexanoic acid]^1[(R)-methoxymethylene-Sar]^3 cyclosporin A], the solubility (usually the dissolved amount per volume that the medium holds) at 18 h in series [2] (25 °C, pH 7.8, aqueous buffer) lay within 75 to 100 µM (≈ 97.9 to 131 µg/mL). Also, the Ki in series [1] turned out to be 10 nM.

Turning to `CC[C@H]1NC(=O)[C@@H]([C@H](O)[C@H](C)CCN(C)Cc2cccnc2)N(C)C(=O)[C@@H](C(C)C)N(C)C(=O)[C@@H](CC(C)C)N(C)C(=O)[C@@H](CC(C)C)N(C)C(=O)[C@H](C)NC(=O)[C@@H](C)NC(=O)[C@@H](CC(C)C)N(C)C(=O)[C@@H](C(C)C)NC(=O)[C@H](CC(C)C)N(C)C(=O)[C@@H](C)N(C)C1=O` [Compound DF, [(3R,4R,5S)-4-Hydroxy-3-methyl-5-(methylamino)-1-({pyridin-3-ylmethyl}-methylamino)-hexanoic acid]^1[(R)-methyl-Sar]^3 cyclosporin A], the solubility at 18 h in series [2] (setting [3]) is greater than 100 µM. Further, in series [1], the Ki worked out at 14 nM. In series [2] (25 °C, pH 7.8, aqueous buffer), `CC[C@H]1NC(=O)[C@@H]([C@H](O)[C@H](C)CCN2CCOCC2)N(C)C(=O)[C@@H](C(C)C)N(C)C(=O)[C@@H](CC(C)C)N(C)C(=O)[C@@H](CC(C)C)N(C)C(=O)[C@H](C)NC(=O)[C@@H](C)NC(=O)[C@@H](CC(C)C)N(C)C(=O)[C@@H](C(C)C)NC(=O)[C@H](CC(C)C)N(C)C(=O)[C@@H](CO)N(C)C1=O` [Compound V, [(3R,4R,5S)-4-Hydroxy-3-methyl-5-(methylamino)-1-N-morpholino-hexanoic acid]^1[(R)-hydroxymethyl-Sar]^3 cyclosporin A] had a solubility at 18 h greater than 100 µM. Moreover, the Ki in series [1] came to 4.5 nM. As to `CC[C@H]1NC(=O)[C@@H]([C@H](O)[C@H](C)CCCCN2CCOCC2)N(C)C(=O)[C@@H](C(C)C)N(C)C(=O)[C@@H](CC(C)C)N(C)C(=O)[C@@H](CC(C)C)N(C)C(=O)[C@H](C)NC(=O)[C@@H](C)NC(=O)[C@@H](CC(C)C)N(C)C(=O)[C@@H](C(C)C)NC(=O)[C@H](CC(C)C)N(C)C(=O)[C@@H](C)N(C)C1=O` [Compound KG, [(5R,6R,7S)-6-hydroxy-5-methyl-7-(methylamino)-1-(N-morpholino)-octanoic acid]^1[(R)-methyl-Sar]^3 cyclosporin A], the Ki in series [1] was 3.8 nM. `CC[C@H]1NC(=O)[C@@H]([C@H](O)[C@H](C)CCN(C)Cc2cc(C(F)(F)F)nn2C)N(C)C(=O)[C@@H](C(C)C)N(C)C(=O)[C@@H](CC(C)C)N(C)C(=O)[C@@H](CC(C)C)N(C)C(=O)[C@H](C)NC(=O)[C@@H](C)NC(=O)[C@@H](CC(C)C)N(C)C(=O)[C@@H](C(C)C)NC(=O)[C@H](CC(C)C)N(C)C(=O)[C@@H](C)N(C)C1=O` [Compound DO, [(3R,4R,5S)-4-Hydroxy-3-methyl-5-(methylamino)-1-({1-methyl-3-trifluoromethyl-2H-pyrazol-5-ylmethyl}-methylamino)-hexanoic acid]^1[(R)-methyl-Sar]^3 cyclosporin A]: in series [2] (setting [3]), the solubility at 18 h was in the range of 10 to 25 µM (≈ 13.8 to 34.5 µg/mL). Further, the Ki in series [1] was determined as 2.8 nM. Take `CC[C@H]1NC(=O)[C@@H]([C@H](O)[C@H](C)CCN2CCOC(c3ccccc3)C2)N(C)C(=O)[C@@H](C(C)C)N(C)C(=O)[C@@H](CC(C)C)N(C)C(=O)[C@@H](CC(C)C)N(C)C(=O)[C@H](C)NC(=O)[C@@H](C)NC(=O)C(CC(C)C)N(C)C(=O)[C@@H](C(C)C)NC(=O)[C@H](CC(C)C)N(C)C(=O)[C@@H](C)N(C)C1=O` (stereo partly drawn) [Compound DZ, [(3R,4R,5S)-4-Hydroxy-3-methyl-5-(methylamino)-1-(2-phenyl-morpholin-4-yl)-hexanoic acid]^1[(R)-methyl-Sar]^3 cyclosporin A]: the solubility at 18 h in series [2] (setting [3]) was 25 to 50 µM (≈ 33.8 to 67.6 µg/mL). Further, the Ki in series [1] amounted to 6 nM. The corresponding values for `CC[C@H]1NC(=O)[C@@H]([C@H](O)[C@H](C)CCN(C)Cc2ccnn2C)N(C)C(=O)[C@@H](C(C)C)N(C)C(=O)[C@@H](CC(C)C)N(C)C(=O)[C@@H](CC(C)C)N(C)C(=O)[C@H](C)NC(=O)[C@@H](C)NC(=O)[C@@H](CC(C)C)N(C)C(=O)[C@@H](C(C)C)NC(=O)[C@H](CC(C)C)N(C)C(=O)[C@@H](C)N(C)C1=O` [Compound DJ, [(3R,4R,5S)-4-Hydroxy-3-methyl-5-(methylamino)-1-({2-methyl-2H-pyrazol-3-ylmethyl}-methylamino)-hexanoic acid]^1[(R)-methyl-Sar]^3 cyclosporin A] are greater than 100 µM and 5.4 nM. Turning to `CC[C@H]1NC(=O)[C@@H]([C@H](O)[C@H](C)CCN(C)Cc2ncccn2)N(C)C(=O)[C@@H](C(C)C)N(C)C(=O)[C@@H](CC(C)C)N(C)C(=O)[C@@H](CC(C)C)N(C)C(=O)[C@H](C)NC(=O)[C@@H](C)NC(=O)[C@@H](CC(C)C)N(C)C(=O)[C@@H](C(C)C)NC(=O)[C@H](CC(C)C)N(C)C(=O)[C@@H](C)N(C)C1=O` [Compound DG, [(3R,4R,5S)-4-Hydroxy-3-methyl-5-(methylamino)-1-({pyrimidin-2-ylmethyl}-methylamino)-hexanoic acid]^1[(R)-methyl-Sar]^3 cyclosporin A], the solubility at 18 h in series [2] (setting [3]) is greater than 100 µM. In series [1], the Ki is 8.5 nM. `CC[C@H]1NC(=O)[C@@H]([C@H](O)[C@H](C)CCN(C)Cc2cnn(C)c2)N(C)C(=O)[C@@H](C(C)C)N(C)C(=O)[C@@H](CC(C)C)N(C)C(=O)[C@@H](CC(C)C)N(C)C(=O)[C@H](C)NC(=O)[C@@H](C)NC(=O)[C@@H](CC(C)C)N(C)C(=O)[C@@H](C(C)C)NC(=O)[C@H](CC(C)C)N(C)C(=O)[C@@H](C)N(C)C1=O` [Compound DM, [(3R,4R,5S)-4-Hydroxy-3-methyl-5-(methylamino)-1-({1-methyl-1H-pyrazol-4-ylmethyl}-methylamino)-hexanoic acid]^1[(R)-methyl-Sar]^3 cyclosporin A]: the Ki in series [1] stood at 23 nM. For `CC[C@H]1NC(=O)[C@@H]([C@H](O)[C@H](C)CCCCN(C)C)N(C)C(=O)[C@@H](C(C)C)N(C)C(=O)[C@@H](CC(C)C)N(C)C(=O)[C@@H](CC(C)C)N(C)C(=O)[C@H](C)NC(=O)[C@@H](C)NC(=O)[C@@H](CC(C)C)N(C)C(=O)[C@@H](C(C)C)NC(=O)[C@H](CC(C)C)N(C)C(=O)[C@@H](C)N(C)C1=O` [Compound KF, [(5R,6R,7S)-1-(dimethylamino)-6-hydroxy-5-methyl-7-(methylamino)-octanoic acid]^1[(R)-methyl-Sar]^3 cyclosporin A], the Ki in series [1] came to 7.8 nM. As for `CC[C@H]1NC(=O)[C@@H]([C@H](O)[C@H](C)CCN(C)Cc2ncccc2C(F)(F)F)N(C)C(=O)[C@@H](C(C)C)N(C)C(=O)[C@@H](CC(C)C)N(C)C(=O)[C@@H](CC(C)C)N(C)C(=O)[C@H](C)NC(=O)[C@@H](C)NC(=O)[C@@H](CC(C)C)N(C)C(=O)[C@@H](C(C)C)NC(=O)[C@H](CC(C)C)N(C)C(=O)[C@@H](C)N(C)C1=O` [Compound DR, [(3R,4R,5S)-4-Hydroxy-3-methyl-5-(methylamino)-1-({3-trifluoromethyl-pyridin-2-ylmethyl}-methylamino)-hexanoic acid]^1[(R)-methyl-Sar]^3 cyclosporin A], in series [1], the Ki was found to be 8.4 nM. Still for that read-out and setting: the figure for `CC[C@H]1NC(=O)[C@@H]([C@H](O)[C@H](C)CCN(C)Cc2ccc(Cl)cn2)N(C)C(=O)[C@@H](C(C)C)N(C)C(=O)[C@@H](CC(C)C)N(C)C(=O)[C@@H](CC(C)C)N(C)C(=O)[C@H](C)NC(=O)[C@@H](C)NC(=O)[C@@H](CC(C)C)N(C)C(=O)[C@@H](C(C)C)NC(=O)[C@H](CC(C)C)N(C)C(=O)[C@@H](C)N(C)C1=O` [Compound DQ, [(3R,4R,5S)-4-Hydroxy-3-methyl-5-(methylamino)-1-({5-chloro-pyridin-2-ylmethyl}-methylamino)-hexanoic acid]^1[(R)-methyl-Sar]^3 cyclosporin A] is 11 nM; for `CC[C@H]1NC(=O)[C@@H]([C@H](O)[C@H](C)CCN(C)Cc2ccc(F)cn2)N(C)C(=O)[C@@H](C(C)C)N(C)C(=O)[C@@H](CC(C)C)N(C)C(=O)[C@@H](CC(C)C)N(C)C(=O)[C@H](C)NC(=O)[C@@H](C)NC(=O)[C@@H](CC(C)C)N(C)C(=O)[C@@H](C(C)C)NC(=O)[C@H](CC(C)C)N(C)C(=O)[C@@H](C)N(C)C1=O` [Compound DP, [(3R,4R,5S)-4-Hydroxy-3-methyl-5-(methylamino)-1-({5-fluoro-pyridin-2-ylmethyl}-methylamino)-hexanoic acid]^1[(R)-methyl-Sar]^3 cyclosporin A] it is 16.2 nM.

For the molecule `CC[C@H]1NC(=O)[C@@H]([C@H](O)[C@H](C)CCN2CCCC2)N(C)C(=O)[C@@H](C(C)C)N(C)C(=O)[C@@H](CC(C)C)N(C)C(=O)[C@@H](CC(C)C)N(C)C(=O)[C@H](C)NC(=O)[C@@H](C)NC(=O)C(CC(C)C)N(C)C(=O)[C@@H](C(C)C)NC(=O)[C@H](CC(C)C)N(C)C(=O)[C@@H](C)N(C)C1=O` (stereo partly drawn) [Compound EF, [(3R,4R,5S)-4-Hydroxy-3-methyl-5-(methylamino)-1-(pyrrolidin-1-yl)-hexanoic acid]^1[(R)-methyl-Sar]^3 cyclosporin A], the Ki in series [1] worked out at 40 nM.
